{
  "source": "PubChem BioAssay AID1745844",
  "about": "(Carcinogenic Potency Database (CPDB), 2022)",
  "system": "rodent lifetime carcinogenesis bioassay, tumor incidence TD50",
  "test": "chronic cancer bioassays in animals – CPDB, compiled studies (AID 1745844)",
  "note": "Several values for one entry are separate records, joined by “and”; a condition that tells them apart may be missing. Identical values can stand only once.",
  "data": [
    {"smiles": "O=P(OCCCl)(OCCCl)OCCCl", "values": [
      {"measurement": "TD50", "setting": "mouse, strain B6C3F1, females, by gavage, site: Harderian gland, lesion: adenoma + carcinoma, dosed 104 weeks, study length 104 weeks", "value": 1390, "unit": "mg/kg/day"},
      {"measurement": "TD50", "setting": "mouse, strain B6C3F1, females, by gavage, site: any site (literature study), lesion: several types, types named in the paper, dosed 104 weeks, study length 104 weeks", "value": 610, "unit": "mg/kg/day"},
      {"measurement": "TD50", "setting": "mouse, strain B6C3F1, females, by gavage, site: liver, lesion: hepatocellular adenoma + hepatocellular carcinoma + neoplastic nodule, dosed 104 weeks, study length 104 weeks", "value": 2870, "unit": "mg/kg/day"},
      {"measurement": "TD50", "setting": "mouse, strain B6C3F1, females, by gavage, site: lung, lesion: alveolar/bronchiolar adenoma + alveolar/bronchiolar carcinoma, dosed 104 weeks, study length 104 weeks", "value": 4380, "unit": "mg/kg/day"},
      {"measurement": "TD50", "setting": "mouse, strain B6C3F1, females, by gavage, site: mammary gland, lesion: adenocarcinoma, dosed 104 weeks, study length 104 weeks", "value": 3050, "unit": "mg/kg/day"},
      {"measurement": "TD50", "setting": "mouse, strain B6C3F1, females, by gavage, site: uterus, lesion: endometrial stromal polyp, dosed 104 weeks, study length 104 weeks", "value": 2420, "unit": "mg/kg/day"},
      {"measurement": "TD50", "setting": "mouse, strain B6C3F1, males, by gavage, site: any site (literature study), lesion: several types, types named in the paper, dosed 104 weeks, study length 104 weeks", "value": 807, "unit": "mg/kg/day"},
      {"measurement": "TD50", "setting": "mouse, strain B6C3F1, males, by gavage, site: kidney, lesion: tubule adenoma + tubule carcinoma, dosed 104 weeks, study length 104 weeks", "value": "3510 mg/kg/day and 6810 mg/kg/day"},
      {"measurement": "TD50", "setting": "mouse, strain B6C3F1, males, by gavage, site: kidney, lesion: tubule carcinoma, dosed 104 weeks, study length 104 weeks", "value": 8450, "unit": "mg/kg/day"},
      {"measurement": "TD50", "setting": "mouse, strain B6C3F1, males, by gavage, site: liver, lesion: hepatocellular adenoma + hepatocellular carcinoma + neoplastic nodule, dosed 104 weeks, study length 104 weeks", "value": 569, "unit": "mg/kg/day"},
      {"measurement": "TD50", "setting": "mouse, strain B6C3F1, males, by gavage, site: lung, lesion: alveolar/bronchiolar adenoma + alveolar/bronchiolar carcinoma, dosed 104 weeks, study length 104 weeks", "value": 61700, "unit": "mg/kg/day"},
      {"measurement": "TD50", "setting": "mouse, strain Slc:ddY, females, in feed, site: all sites, lesion: leukemia, dosed 78 weeks, study length 78 weeks", "value": 4790, "unit": "mg/kg/day"},
      {"measurement": "TD50", "setting": "mouse, strain Slc:ddY, females, in feed, site: any site (literature study), lesion: several types, types named in the paper, dosed 78 weeks, study length 78 weeks", "value": 880, "unit": "mg/kg/day"},
      {"measurement": "TD50", "setting": "mouse, strain Slc:ddY, females, in feed, site: forestomach, lesion: several types, types named in the paper, dosed 78 weeks, study length 78 weeks", "value": 5500, "unit": "mg/kg/day"},
      {"measurement": "TD50", "setting": "mouse, strain Slc:ddY, females, in feed, site: forestomach, lesion: squamous-cell carcinoma, dosed 78 weeks, study length 78 weeks", "value": 8970, "unit": "mg/kg/day"},
      {"measurement": "TD50", "setting": "mouse, strain Slc:ddY, females, in feed, site: liver, lesion: hepatocellular adenoma, dosed 78 weeks, study length 78 weeks", "value": 23000, "unit": "mg/kg/day"},
      {"measurement": "TD50", "setting": "mouse, strain Slc:ddY, males, in feed, site: any site (literature study), lesion: several types, types named in the paper, dosed 78 weeks, study length 78 weeks", "value": 185, "unit": "mg/kg/day"},
      {"measurement": "TD50", "setting": "mouse, strain Slc:ddY, males, in feed, site: kidney, lesion: renal-cell carcinoma, dosed 78 weeks, study length 78 weeks", "value": 844, "unit": "mg/kg/day"},
      {"measurement": "TD50", "setting": "mouse, strain Slc:ddY, males, in feed, site: kidney, lesion: several types, types named in the paper, dosed 78 weeks, study length 78 weeks", "value": 539, "unit": "mg/kg/day"},
      {"measurement": "TD50", "setting": "mouse, strain Slc:ddY, males, in feed, site: liver, lesion: hepatocellular carcinoma, dosed 78 weeks, study length 78 weeks", "value": 28800, "unit": "mg/kg/day"},
      {"measurement": "TD50", "setting": "mouse, strain Slc:ddY, males, in feed, site: liver, lesion: several types, types named in the paper, dosed 78 weeks, study length 78 weeks", "value": 1690, "unit": "mg/kg/day"},
      {"measurement": "TD50", "setting": "rat, strain Fischer 344, females, by gavage, site: any site (literature study), lesion: several types, types named in the paper, dosed 104 weeks, study length 104 weeks", "value": 39.9, "unit": "mg/kg/day"},
      {"measurement": "TD50", "setting": "rat, strain Fischer 344, females, by gavage, site: kidney, lesion: tubule adenoma, dosed 104 weeks, study length 104 weeks", "value": 187, "unit": "mg/kg/day"},
      {"measurement": "TD50", "setting": "rat, strain Fischer 344, females, by gavage, site: multiple organs, lesion: mononuclear-cell leukemia, dosed 104 weeks, study length 104 weeks", "value": 90.2, "unit": "mg/kg/day"},
      {"measurement": "TD50", "setting": "rat, strain Fischer 344, females, by gavage, site: thyroid gland, lesion: follicular-cell adenoma + follicular-cell carcinoma, dosed 104 weeks, study length 104 weeks", "value": 203, "unit": "mg/kg/day"},
      {"measurement": "TD50", "setting": "rat, strain Fischer 344, females, by gavage, site: thyroid gland, lesion: follicular-cell carcinoma, dosed 104 weeks, study length 104 weeks", "value": 280, "unit": "mg/kg/day"},
      {"measurement": "TD50", "setting": "rat, strain Fischer 344, females, by gavage, site: uterus, lesion: endometrial stromal sarcoma, dosed 104 weeks, study length 104 weeks", "value": 589, "unit": "mg/kg/day"},
      {"measurement": "TD50", "setting": "rat, strain Fischer 344, males, by gavage, site: adrenal medulla, lesion: pheochromocytoma benign, bilateral + pheochromocytoma, benign, dosed 104 weeks, study length 104 weeks", "value": 49.5, "unit": "mg/kg/day"},
      {"measurement": "TD50", "setting": "rat, strain Fischer 344, males, by gavage, site: any site (literature study), lesion: several types, types named in the paper, dosed 104 weeks, study length 104 weeks", "value": 56.8, "unit": "mg/kg/day"},
      {"measurement": "TD50", "setting": "rat, strain Fischer 344, males, by gavage, site: brain + cerebellum, meninges, lesion: granular-cell tumor, benign, dosed 104 weeks, study length 104 weeks", "value": 705, "unit": "mg/kg/day"},
      {"measurement": "TD50", "setting": "rat, strain Fischer 344, males, by gavage, site: kidney, lesion: tubule adenoma + tubule carcinoma, dosed 104 weeks, study length 104 weeks", "value": 56.4, "unit": "mg/kg/day"},
      {"measurement": "TD50", "setting": "rat, strain Fischer 344, males, by gavage, site: kidney, lesion: tubule adenoma, dosed 104 weeks, study length 104 weeks", "value": 56.9, "unit": "mg/kg/day"},
      {"measurement": "TD50", "setting": "rat, strain Fischer 344, males, by gavage, site: kidney, lesion: tubule carcinoma, dosed 104 weeks, study length 104 weeks", "value": 8400, "unit": "mg/kg/day"},
      {"measurement": "TD50", "setting": "rat, strain Fischer 344, males, by gavage, site: liver, lesion: hepatocellular adenoma + hepatocellular carcinoma + neoplastic nodule, dosed 104 weeks, study length 104 weeks", "value": 633, "unit": "mg/kg/day"},
      {"measurement": "TD50", "setting": "rat, strain Fischer 344, males, by gavage, site: multiple organs, lesion: mononuclear-cell leukemia, dosed 104 weeks, study length 104 weeks", "value": 107, "unit": "mg/kg/day"},
      {"measurement": "TD50", "setting": "rat, strain Fischer 344, males, by gavage, site: subcutaneous tissue, lesion: fibroma, dosed 104 weeks, study length 104 weeks", "value": 246, "unit": "mg/kg/day"},
      {"measurement": "TD50", "setting": "rat, strain Fischer 344, males, by gavage, site: thyroid gland, lesion: follicular-cell adenoma + follicular-cell carcinoma, dosed 104 weeks, study length 104 weeks", "value": 338, "unit": "mg/kg/day"}
    ]},
    {"smiles": "CC(C)(C)NCC(O)c1ccc(O)c(CO)c1", "note": "(stereo not given)", "values": [
      {"measurement": "TD50", "setting": "rat, strain Charles River CD (Sprague-Dawley), females, in feed, site: mesovarium, lesion: leiomyoma, dosed 80 weeks, study length 80 weeks", "value": 36.3, "unit": "mg/kg/day"},
      {"measurement": "TD50", "setting": "rat, strain Charles River CD (Sprague-Dawley), females, in feed, site: mesovarium, lesion: leiomyoma, dosed 104 weeks, study length 104 weeks", "value": 44.6, "unit": "mg/kg/day"}
    ]},
    {"smiles": "ClC/C=C/CCl", "values": [
      {"measurement": "TD50", "setting": "mouse, strain Ha/ICR, females, i.p., site: abdomen, lesion: sarcoma, dosed 76 weeks, study length 76 weeks", "value": 1.52, "unit": "mg/kg/day"}
    ]}
  ]
}
